Data from patent US20260306503A1, “(S)-2-HYDROXY-6-((4-(2-(2-HYDROXYETHYL)NICOTINOYL)MORPHOLIN-3-YL)METHOXY)BENZALDEHYD FOR USE IN THE TREATMENT OF SICKLE CELL DISEASE” (Global Blood Therapeutics, Inc., priority 2023, published 2026).

Tested on: participants with SCD
Experiment: Preliminary blood analysis of SCD patients given oral Compound I, 300 mg QD for 14 days then 200 mg QD through Week 12 (Part A Sub Study 2);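 as to Bilirubin total: values in mg/dL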
Assay type: in vivo, human
Settings: for Bilirubin total: Day 0 (screening) 4.84
Protocol: Part A of this study is a Phase 2 randomized, open-label, dose-finding study in approximately 60 adult participants with SCD. The primary objective of Part A of this study is to assess the effects of Compound I in adult participants with SCD as measured by change in hemoglobin.
Participants are screened for eligibility in the study from Day −28 through Day −1. Eligible participants are randomized on Day 1 based on a 1:1 (100 mg: 150 mg) allocation and will receive their initial dose (loading dose) of Compound I. After completion of Day 1 assessments and subsequent loading doses, participants will continue with administration of their maintenance dose daily through Week 12.
Some newly enrolled participants in Part A will receive a loading dose regimen of 300 mg of Compound I once daily over the first 14 days. Participants will then receive 200 mg once daily maintenance doses through Week 12.

Alkaline phosphatase (Patient B, Day 43, Day 0 (screening) 49.3): 67.6 IU/L
Platelet count (Patient B, Day 43, Day 0 (screening) 360): 260 K/μL
Absolute neutrophil (Patient B, Day 57, Day 0 (screening) 6.9): 5.5 K/μL
Alkaline phosphatase (Patient B, Day 57, Day 0 (screening) 49.3): 69.6 IU/L
Platelet count (Patient B, Day 57, Day 0 (screening) 360): 290 K/μL
Absolute neutrophil (Patient B, Day 85, Day 0 (screening) 6.9): 5.6 K/μL
Alkaline phosphatase (Patient B, Day 85, Day 0 (screening) 49.3): 72.6 IU/L
Platelet count (Patient B, Day 85, Day 0 (screening) 360): 256 K/μL
Alkaline phosphatase (Patient C, Day 1, Day 0 (screening) 52.4): 51.4 IU/L
Absolute neutrophil (Patient C, Day 8, Day 0 (screening) 0.8): 6.7 K/μL
Alkaline phosphatase (Patient C, Day 8, Day 0 (screening) 52.4): 61.5 IU/L
Platelet count (Patient C, Day 8, Day 0 (screening) 392): 405 K/μL
Absolute neutrophil (Patient C, Day 15, Day 0 (screening) 0.8): 3.9 K/μL
Alkaline phosphatase (Patient C, Day 15, Day 0 (screening) 52.4): 54.4 IU/L
Platelet count (Patient C, Day 15, Day 0 (screening) 392): 482 K/μL
Absolute neutrophil (Patient C, Day 29, Day 0 (screening) 0.8): 2.6 K/μL
Alkaline phosphatase (Patient C, Day 29, Day 0 (screening) 52.4): 51.4 IU/L
Platelet count (Patient C, Day 29, Day 0 (screening) 392): 357 K/μL
Absolute neutrophil (Patient C, Day 43, Day 0 (screening) 0.8): 1.0 K/μL
Alkaline phosphatase (Patient C, Day 43, Day 0 (screening) 52.4): 58.5 IU/L
Platelet count (Patient C, Day 43, Day 0 (screening) 392): 416 K/μL
Absolute neutrophil (Patient C, Day 57, Day 0 (screening) 0.8): 4.3 K/μL
Alkaline phosphatase (Patient C, Day 57, Day 0 (screening) 52.4): 56.4 IU/L
Platelet count (Patient C, Day 57, Day 0 (screening) 392): 413 K/μL
Absolute neutrophil (Patient C, Day 85, Day 0 (screening) 0.8): 4.9 K/μL
Alkaline phosphatase (Patient C, Day 85, Day 0 (screening) 52.4): 55.4 IU/L
Platelet count (Patient C, Day 85, Day 0 (screening) 392): 457 K/μL
Structure (SMILES): O=Cc1c(O)cccc1OC[C@@H]1COCCN1C(=O)c1cccnc1CCO [Compound I, (S)-2-hydroxy-6-((4-(2-(2-hydroxyethyl)nicotinoyl)morpholin-3-yl)methoxy)benzaldehyde]
Hematocrit (HCT) (Patient B, Day 43, Day 0 (screening) 23.5): 45.4%
Aspartate Aminotransferase (AST) (Patient B, Day 43, Day 0 (screening) 41.1): 27.1 IU/L
Lactate dehydrogenase (LDH) (Patient B, Day 43, Day 0 (screening) 371): 151 IU/L
Bilirubin direct (Patient B, Day 57, Day 0 (screening) 0.18): 0.18 mg/dL
Bilirubin indirect (Patient B, Day 57, Day 0 (screening) 4.66): 0.39 mg/dL
Bilirubin total (Patient B, Day 57): 0.57 mg/dL
Hemoglobin (HGB) (Patient B, Day 57, Day 0 (screening) 8.3): 14.3 g/dL
Reticulocytes (Patient B, Day 57, Day 0 (screening) 11.5): 0.9%
Alanine Aminotransferase (ALT) (Patient B, Day 57, Day 0 (screening) 22.0): 17.9 IU/L
Hematocrit (HCT) (Patient B, Day 57, Day 0 (screening) 23.5): 42.6%
Aspartate Aminotransferase (AST) (Patient B, Day 57, Day 0 (screening) 41.1): 26.2 IU/L
Lactate dehydrogenase (LDH) (Patient B, Day 57, Day 0 (screening) 371): 152 IU/L
Bilirubin direct (Patient B, Day 85, Day 0 (screening) 0.18): <0.01 mg/dL
Bilirubin total (Patient B, Day 85): 0.94 mg/dL
Hemoglobin (HGB) (Patient B, Day 85, Day 0 (screening) 8.3): 14.9 g/dL
Reticulocytes (Patient B, Day 85, Day 0 (screening) 11.5): 1.1%
Alanine Aminotransferase (ALT) (Patient B, Day 85, Day 0 (screening) 22.0): 20.0 IU/L
Hematocrit (HCT) (Patient B, Day 85, Day 0 (screening) 23.5): 43.7%
Aspartate Aminotransferase (AST) (Patient B, Day 85, Day 0 (screening) 41.1): 27.1 IU/L
Lactate dehydrogenase (LDH) (Patient B, Day 85, Day 0 (screening) 371): 141 IU/L
Bilirubin direct (Patient C, Day 1, Day 0 (screening) 0.58): 0.58 mg/dL
Bilirubin indirect (Patient C, Day 1, Day 0 (screening) 4.26): 4.87 mg/dL
Bilirubin total (Patient C, Day 1): 5.45 mg/dL
Alanine Aminotransferase (ALT) (Patient C, Day 1, Day 0 (screening) 20.0): 24.8 IU/L
Aspartate Aminotransferase (AST) (Patient C, Day 1, Day 0 (screening) 48.0): 62.0 IU/L
Lactate dehydrogenase (LDH) (Patient C, Day 1, Day 0 (screening) 533): 691 IU/L
Bilirubin direct (Patient C, Day 8, Day 0 (screening) 0.58): 0.38 mg/dL
Bilirubin indirect (Patient C, Day 8, Day 0 (screening) 4.26): 3.85 mg/dL
Bilirubin total (Patient C, Day 8): 4.23 mg/dL
Hemoglobin (HGB) (Patient C, Day 8, Day 0 (screening) 7.1): 9.1 g/dL
Reticulocytes (Patient C, Day 8, Day 0 (screening) 13.7): 9.9%
Alanine Aminotransferase (ALT) (Patient C, Day 8, Day 0 (screening) 20.0): 28.9 IU/L
Hematocrit (HCT) (Patient C, Day 8, Day 0 (screening) 21.0): 25.9%
Aspartate Aminotransferase (AST) (Patient C, Day 8, Day 0 (screening) 48.0): 57.0 IU/L
Lactate dehydrogenase (LDH) (Patient C, Day 8, Day 0 (screening) 533): 545 IU/L
Bilirubin direct (Patient C, Day 15, Day 0 (screening) 0.58): 0.38 mg/dL
Bilirubin indirect (Patient C, Day 15, Day 0 (screening) 4.26): 3.12 mg/dL
Bilirubin total (Patient C, Day 15): 3.50 mg/dL
Hemoglobin (HGB) (Patient C, Day 15, Day 0 (screening) 7.1): 10.2 g/dL
Reticulocytes (Patient C, Day 15, Day 0 (screening) 13.7): 5.0%
Alanine Aminotransferase (ALT) (Patient C, Day 15, Day 0 (screening) 20.0): 18.6 IU/L
Hematocrit (HCT) (Patient C, Day 15, Day 0 (screening) 21.0): 29.8%
Aspartate Aminotransferase (AST) (Patient C, Day 15, Day 0 (screening) 48.0): 34.1 IU/L
Lactate dehydrogenase (LDH) (Patient C, Day 15, Day 0 (screening) 533): 327 IU/L
Bilirubin direct (Patient C, Day 29, Day 0 (screening) 0.58): 0.38 mg/dL
Bilirubin indirect (Patient C, Day 29, Day 0 (screening) 4.26): 2.51 mg/dL
Bilirubin total (Patient C, Day 29): 2.89 mg/dL
Hemoglobin (HGB) (Patient C, Day 29, Day 0 (screening) 7.1): 11.6 g/dL
Reticulocytes (Patient C, Day 29, Day 0 (screening) 13.7): 1.8%
Alanine Aminotransferase (ALT) (Patient C, Day 29, Day 0 (screening) 20.0): 17.2 IU/L
Hematocrit (HCT) (Patient C, Day 29, Day 0 (screening) 21.0): 33.9%
Aspartate Aminotransferase (AST) (Patient C, Day 29, Day 0 (screening) 48.0): 39.1 IU/L
Lactate dehydrogenase (LDH) (Patient C, Day 29, Day 0 (screening) 533): 256 IU/L
Bilirubin direct (Patient C, Day 43, Day 0 (screening) 0.58): 0.28 mg/dL
Bilirubin indirect (Patient C, Day 43, Day 0 (screening) 4.26): 4.44 mg/dL
Bilirubin total (Patient C, Day 43): 4.72 mg/dL
Hemoglobin (HGB) (Patient C, Day 43, Day 0 (screening) 7.1): 10.5 g/dL
Reticulocytes (Patient C, Day 43, Day 0 (screening) 13.7): 2.8%
Alanine Aminotransferase (ALT) (Patient C, Day 43, Day 0 (screening) 20.0): 26.8 IU/L
Hematocrit (HCT) (Patient C, Day 43, Day 0 (screening) 21.0): 30.1%
Aspartate Aminotransferase (AST) (Patient C, Day 43, Day 0 (screening) 48.0): 46.1 IU/L
Lactate dehydrogenase (LDH) (Patient C, Day 43, Day 0 (screening) 533): 291 IU/L
Bilirubin direct (Patient C, Day 57, Day 0 (screening) 0.58): 0.18 mg/dL
Bilirubin indirect (Patient C, Day 57, Day 0 (screening) 4.26): 3.44 mg/dL
Bilirubin total (Patient C, Day 57): 3.62 mg/dL
Hemoglobin (HGB) (Patient C, Day 57, Day 0 (screening) 7.1): 10.4 g/dL
Reticulocytes (Patient C, Day 57, Day 0 (screening) 13.7): 4.2%
Alanine Aminotransferase (ALT) (Patient C, Day 57, Day 0 (screening) 20.0): 21.3 IU/L
Hematocrit (HCT) (Patient C, Day 57, Day 0 (screening) 21.0): 28.9%
Aspartate Aminotransferase (AST) (Patient C, Day 57, Day 0 (screening) 48.0): 46.1 IU/L
Lactate dehydrogenase (LDH) (Patient C, Day 57, Day 0 (screening) 533): 296 IU/L
Bilirubin direct (Patient C, Day 85, Day 0 (screening) 0.58): <0.01 mg/dL
Bilirubin total (Patient C, Day 85): 3.62 mg/dL
Hemoglobin (HGB) (Patient C, Day 85, Day 0 (screening) 7.1): 10.0 g/dL
Reticulocytes (Patient C, Day 85, Day 0 (screening) 13.7): 5.9%
Alanine Aminotransferase (ALT) (Patient C, Day 85, Day 0 (screening) 20.0): 20.6 IU/L
Hematocrit (HCT) (Patient C, Day 85, Day 0 (screening) 21.0): 28.2%
Aspartate Aminotransferase (AST) (Patient C, Day 85, Day 0 (screening) 48.0): 39.1 IU/L
Lactate dehydrogenase (LDH) (Patient C, Day 85, Day 0 (screening) 533): 276 IU/L
